Results reported in patent EP0764149B1, “NOVEL FARNESYL TRANSFERASE INHIBITORS, THEIR PREPARATION AND PHARMACEUTICAL COMPOSITIONS CONTAINING SAME” (RHONE-POULENC RORER S.A., priority 1994, dated 1995).
Like-named read-outs stand apart in the source and are kept apart here.

Columns and labels:
[1] = biological target: T1, farnésyltransférase humaine (Homo sapiens, UniProt P49354+P49356); experiment: Farnesyltransferase inhibition: transfer of (3H) farnesyl from (3H) FPP to p21 H-Ras; format: biochemical; conditions: read-out: Activité inhibitrice IC50
T1 construct: farnésyltransférase humaine purifiée à partir de cultures de cellules THP1; endogenous in cells; host or cells: THP1 cell cultures (enzyme purified from them)
Experimental: L'activité farnésyltransférase est déterminée par la quantité de (^3H) farnésyl transférée à partir du (^3H) farnésylpyrophosphate [(^3H) FPP) sur la protéine p21 H-Ras. Le mélange réactionnel standard est composé, pour un volume final de 60 µl, de Tris-HCl 50mM, MgCl2 5mM, dithiotréitol 5 mM, octyl-β-D-glucopyranoside 0,2 %, p21 H-ras 200 picomoles, (^3H) FPP (à 61000 dpm/picomole) 4,5 picomoles.
La réaction est initiée par addition d'environ 5 ng de farnésyltransférase humaine purifiée à partir de cultures de cellules THP1. Après incubation pendant 20 minutes à 37°C en plaque de microtitration contenant 96 trous de 1 cm3 par plaque (Titer Plate®, Beckman), la réaction est stoppée par addition de 0,4 cm3 de SDS à 0,1 % dans le méthanol à 0°C. Le mélange est ensuite additionné de 0,4 cm3 d'acide trichloroacétique (TCA) à 30 % dans le méthanol. Les plaques sont laissées pendant 1 heure dans la glace. Le contenu précipité est alors retenu sur membrane en fibre de verre Filtermat®, Pharmacia) avec l'unité de filtration (Combi Cell Harvester®, Skatron) et rincé avec de l'acide trichloroacétique à 6 % dans l'eau distillée. Les membranes sont séchées au four à micro-ondes puis imprégnées de scintillant par fusion sous air chaud de Meltilex® (Pharmacia) et enfin comptées en cpm dans un compteur β-Plate® (LKB). Chaque essai est répété 3 fois.
L'unité d'activité est définie par 1 picomole de (^3H) FPP transférée sur p21 H-Ras en 20 minutes.
Les pourcentages d'inhibition sont obtenus par comparaison des essais avec et sans inhibiteur après déduction des blancs, les IC50 étant mesurées à partir des inhibitions obtenues avec 9 concentrations différentes en utilisant les logiciels Enzfitter® ou Grafit®.

[2] = test system: farnésylation de la protéine Ras; experiment: Inhibition of Ras protein farnesylation in THAC cells (Triton X114 extraction, Western blot); format: cell-based; conditions: 24 h culture, read-out: % d'inhibition sur cellules (THAC)
Source text: La lignée cellulaire est la lignée THAC (cellules CCL 39 transfectées par Ha-Ras activé) selon K. Seuwen et coll., EMBO J., 7(1) 161-168 (1988). Les cellules sont ensemencées dans des boîtes de Petri de 6 cm de diamètre contenant un milieu DMEM, sérum de veau foetal 5 %, G418 1 %.
Après 24 heures de culture, le milieu de culture est changé (avec ou sans sérum) et le produit à étudier est ajouté en solution dans le diméthylformamide (DMF), en présence ou en absence de DTT (concentrations finales de 0,5 % en DMF et 0,1mM en DTT). Après 24 heures de culture à 37°C, les cellules sont lysées dans 1 cm3 de tampon de lyse (Tris, HCI 20mM, Triton X114 1 %, MgCl2 5 mM, DIT 7 mM, NaCl 150 mM, pH = 7,4). Les lysats sont clarifiés par centrifugation à 4.000 tours/minute pendant 10 minutes. L'extraction par le Triton X114 permet de séparer la protéine Ras farnésylée de la protéine Ras non farnésylée [C. BORDIER, J. Biol. Chem., 256 (4), 1604-1607 (1981)]. La protéine Ras farnésylée qui est plus hydrophobe se trouve dans la phase détergente tandis que la protéine Ras non farnésylée est dans la phase aqueuse. Les échantillons sont dénaturés par chauffage à 95°C dans du tampon de dénaturation pour électrophorèse et déposées sur un gel de polyacrylamide à 14 %. Lorsque le colorant atteint le bas du gel, les protéines du gel sont transférées sur une membrane PVDF. […]

Row | IC50 ([1]; unit inferred) | Compound | further results
1 | 70 nM | COCCOCCOC(=O)[C@H](CCSC)NC(=O)c1cccc2c(NC[C@@H](N)CS)cccc12 [Exemple 9, ester 2-(2-méthoxyéthoxy) éthyliquede la N-[5-(2(R)-amino-3-mercapto-propylamino)-naphtyl-1-carbonyl]-L-méthionine] | 
2 | 80 nM | COC(=O)[C@H](CCSC)NC(=O)c1cccc2cc(NC[C@@H](N)CS)ccc12 [Exemple 20, ester méthyliquede la N-[6-(2(R)-amino-3-mercapto-propylamino)-naphtyl-1-carbonyl]-L-méthionine] | inhibition at 10 µM ([2]; à 10 µM): 50%
3 | 5.6 nM | CSCC[C@H](NC(=O)c1cccc2c(NC[C@@H](N)CS)cccc12)C(=O)O [Exemple 3, N-[5-(2(R)-amino-3-mercapto-propylamino)-naphthyl-1-carbonyl]-L-méthionine] | 
4 | 48 nM | CSCC[C@H](NC(=O)c1cccc2c(NC(=O)[C@@H](N)CS)cccc12)C(=O)O [Exemple 1, N-[5-(2(R)-amino-3-mercapto-propionylamino)-naphthyl-1-carbonyl}-L-méthionine] | 
5 | 1.8 nM | CSCC[C@H](NC(=O)c1cccc2cc(NC[C@@H](N)CS)ccc12)C(=O)O [Exemple 19, N-[6-(2(R)-amino-3-mercapto-propylamino)-naphtyl-1-carbonyl]-L-méthionine] | inhibition at 50 µM ([2]; à 50 µM): 31%
6 | 69 nM | CCCC[C@H](NC(=O)c1cccc2c(NC[C@@H](N)CS)cccc12)C(=O)O [Exemple 5, N-[5-(2(R)-amino-3-mercapto-propylamino)-naphthyl-1 carbonyl]-L-norleucine] | 
7 | 100 nM | CSCC[C@H](NC(=O)c1cccc2c(NC[C@@H](N)CS)cccc12)C(=O)OCc1ccccc1 [Exemple 8, ester benzyliquede la N-[5-(2(R)-amino-3-mercapto-propylamino)-naphtyl-1-carbonyl]-L-méthionine] | 
8 | 21 nM | CSCC[C@H](NC(=O)c1cccc2c(NC[C@@H](N)CS)cccc12)C(=O)OCCS(=O)(=O)c1ccccc1 [Exemple 10] | 
9 |  | CS(=O)(=O)CC[C@H](NC(=O)c1cccc2cc(NC[C@@H](N)CS)ccc12)C(=O)O [Exemple 21, acide 2(S)-[6-(2(R)-amino-3-mercapto-propylamino)-1-naphtoylamino]-4-méthylsulfonyl-butanoïque] | IC50 [1]: 4 nM
